Data on seven compounds can be found in ChEMBL document CHEMBL1201862, “PubChem BioAssay data set” (2004).

Test systems include 786-0; NCI-H522; SF-295; RPMI-8226; SK-OV-3; K562; MDA-MB-435; CCRF-CEM; M14; LOX IMVI; ACHN; SR; SK-MEL-5; SF-268; Hs-578T; CAKI-1; SK-MEL-28; SK-MEL-2; EKVX.
What all share (experiment): growth of human tumour cells (NCI), 48 h

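Cells were grown in 96-well plates and exposed to each compound for 48 hours at five concentrations; endpoints were interpolated linearly between bracketing concentrations, or set to the highest concentration if not reached. Abbreviation: GI50, concentration required for 50% inhibition of growth.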 Calls of active or inactive are those of the source. Cut-off read from the data, not from the text of the source: active = GI50 up to about 1.1 µM and inactive = higher. Bounds are passed on as bounds.

On to `CCNC(C)(C)C(SS)c1ccc(Br)cc1` (stereo not drawn), for which the GI50 in the test on 786-0 was 21.3 µM (inactive); with NCI-H522, 18.4 µM (inactive); in the test with SF-295 it was > 100 µM (inactive); in the test with RPMI-8226, 27.8 µM (inactive); with SK-OV-3 it was > 100 µM (inactive); in the test with K562, 36.1 µM (inactive). For the same compound, the GI50 with MDA-MB-435 is 34.8 µM (inactive); with CCRF-CEM, 20.3 µM (inactive); in the test with M14 it was 59.2 µM (inactive); in the test with LOX IMVI, 26.1 µM (inactive); in the test with ACHN it was > 100 µM (inactive); with SR it was 30.4 µM (inactive). Besides, the GI50 is 91.4 µM (inactive) with SK-MEL-5; 60.8 µM (inactive) with SF-268; > 100 µM (inactive) in the test with Hs-578T; 78 µM (inactive) in the test on CAKI-1; > 100 µM (inactive) in the test on SK-MEL-28; > 100 µM (inactive) in the test on SK-MEL-2. Besides, the GI50 with EKVX is > 100 µM (inactive).
Take `Cc1cc(S(=O)(=O)Nc2nc(Nc3ccccc3)n[nH]2)c(SCC(=O)O)cc1Cl`: the GI50 in the test on 786-0, in the test with NCI-H522, with SF-295, with RPMI-8226, with SK-OV-3 and with K562 was > 100 µM (inactive) in each case. Moreover, the GI50 in the test on MDA-MB-435, in the test on CCRF-CEM, in the test on M14, with LOX IMVI, with ACHN and in the test on SR was > 100 µM (inactive) each time. In addition, the GI50 in the test on SK-MEL-5, in the test with SF-268, with Hs-578T, in the test on CAKI-1, in the test on SK-MEL-28 and in the test with SK-MEL-2 was > 100 µM (inactive) throughout. Moreover, the GI50 in the test on EKVX was > 100 µM (inactive).
For `O=C1OC(c2ccc(Cl)cc2)=N/C1=C\c1ccccc1`, the GI50 in the test with 786-0 was > 100 µM (inactive); in the test on NCI-H522, 49.2 µM (inactive); in the test with SF-295 it was > 100 µM (inactive); with RPMI-8226, 46.6 µM (inactive); in the test on SK-OV-3, > 100 µM (inactive); in the test on K562 it was > 100 µM (inactive). The GI50 was > 100 µM (inactive) in the test on MDA-MB-435; 39.5 µM (inactive) in the test on CCRF-CEM; > 100 µM (inactive) with M14; > 100 µM (inactive) in the test on LOX IMVI; > 100 µM (inactive) in the test with ACHN; > 100 µM (inactive) in the test with SR. The GI50 with SK-MEL-5, in the test with SF-268, in the test with Hs-578T, in the test on CAKI-1, in the test on SK-MEL-28 and with SK-MEL-2 was > 100 µM (inactive) throughout. Moreover, the GI50 with EKVX was > 100 µM (inactive).
As to `O=C1c2ccccc2C(=O)N1CCCC(=O)n1cc(F)c(=O)[nH]c1=O`, the GI50 with 786-0 was 14.4 µM (inactive); with NCI-H522, 37.4 µM (inactive); in the test on SF-295 it was 49.1 µM (inactive); with RPMI-8226 it was 5.06 µM (inactive); in the test on SK-OV-3 it was > 91 µM (inactive); with K562, 24.9 µM (inactive). Also, the GI50 in the test on MDA-MB-435 was > 37.1 µM (inactive); with CCRF-CEM, 18.6 µM (inactive); with M14, 14.5 µM (inactive); with LOX IMVI, 6.18 µM (inactive); in the test on ACHN, 15.8 µM (inactive); in the test on SR it was 5.53 µM (inactive). For the same compound, the GI50 is 12.3 µM (inactive) in the test on SK-MEL-5; 69.2 µM (inactive) in the test on SF-268; > 100 µM (inactive) in the test on Hs-578T; 6.05 µM (inactive) in the test with CAKI-1; > 100 µM (inactive) in the test with SK-MEL-28; > 100 µM (inactive) in the test with SK-MEL-2. Also, the GI50 in the test on EKVX was > 58.3 µM (inactive).
`Nc1nc(I)nc2c1ncn2C1OC(COS(N)(=O)=O)C(O)C1O` (stereo not drawn): the GI50 in the test on 786-0 was < 0.0106 µM (active); in the test with NCI-H522, < 0.01 µM (active); with SF-295, 0.0393 µM (active); in the test with RPMI-8226 it was 0.0179 µM (active); with SK-OV-3, < 0.0166 µM (active); in the test with K562, < 0.01 µM (active). The GI50 in the test on MDA-MB-435 is < 0.01 µM (active); in the test with CCRF-CEM, < 0.01 µM (active); in the test with M14, < 0.0104 µM (active); with LOX IMVI, < 0.0116 µM (active); in the test on ACHN, < 0.0117 µM (active); with SR it was < 0.01 µM (active). Also, the GI50 is < 0.01 µM (active) with SK-MEL-5; < 0.01 µM (active) in the test with SF-268; < 0.01 µM (active) in the test on Hs-578T; 0.0336 µM (active) in the test on CAKI-1; < 0.01 µM (active) with SK-MEL-28; < 0.01 µM (active) in the test with SK-MEL-2. Also, in the test on EKVX, the GI50 is < 0.0121 µM (active).
Turning to `C[C@H]1[C@H](C)CC[C@]2(C(=O)OC3OC(CO)C(O)C(O)C3O)CC[C@]3(C)C(=CC[C@@H]4[C@@]5(C)C[C@@H](O)[C@@H]6OC(=O)c7cc(O)c(O)c(O)c7-c7c(cc(O)c(O)c7O)C(=O)OC[C@@]6(CO)[C@@H]5CC[C@]43C)[C@H]12` (stereo partly drawn), the GI50 is 23.2 µM (inactive) in the test with 786-0; > 59.3 µM (inactive) in the test with NCI-H522; > 100 µM (inactive) with SF-295; 98.2 µM (inactive) with RPMI-8226; 98.6 µM (inactive) in the test on SK-OV-3; 32.7 µM (inactive) with K562. In addition, the GI50 in the test on MDA-MB-435 is 19.6 µM (inactive); in the test on CCRF-CEM, 43.5 µM (inactive); in the test on M14, > 100 µM (inactive); in the test with LOX IMVI it was 17.8 µM (inactive); in the test on ACHN it was > 100 µM (inactive); in the test with SR, 38.1 µM (inactive). The GI50 was > 84.9 µM (inactive) in the test on SK-MEL-5; > 100 µM (inactive) in the test on SF-268; > 100 µM (inactive) in the test with Hs-578T; 47.8 µM (inactive) with CAKI-1; > 100 µM (inactive) in the test on SK-MEL-28; > 100 µM (inactive) with SK-MEL-2. In the test with EKVX, the GI50 is > 100 µM (inactive).
As for `CC1=CC(=O)[C@@H](O)[C@]2(C)[C@H]3[C@@]4(O)OC[C@]35[C@H]([C@@H](C)[C@H]4O)[C@@H](OC(=O)C(C)(C)CO)C(=O)O[C@@H]5C[C@@H]12`, the GI50 in the test with 786-0 is 0.16 µM (active); in the test on NCI-H522, < 0.0151 µM (active); in the test with SF-295, 0.229 µM (active); with RPMI-8226, 0.0158 µM (active); with SK-OV-3, 4.31 µM (inactive); with K562 it was 0.0123 µM (active). Moreover, the GI50 with MDA-MB-435 is 0.12 µM (active); in the test on CCRF-CEM, 0.0362 µM (active); with M14, < 0.0431 µM (active); in the test with LOX IMVI, < 0.012 µM (active); with ACHN it was 0.208 µM (active); in the test on SR it was 0.0155 µM (active). Further, the GI50 was < 0.0204 µM (active) in the test with SK-MEL-5; < 0.0379 µM (active) in the test on SF-268; 0.046 µM (active) in the test with Hs-578T; 1.08 µM (active) with CAKI-1; 0.0478 µM (active) in the test on SK-MEL-28; < 0.0453 µM (active) in the test on SK-MEL-2. Moreover, the GI50 with EKVX is 0.741 µM (active).
